ChEMBL document CHEMBL1201862, “PubChem BioAssay data set” (2004)
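Grown in 96-well plates, cells were treated for 48 hours with each compound at five concentrations. Insufficient inhibition: endpoint recorded as highest concentration tested. GI50 is the concentration that inhibits growth by half.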 Calls of active or inactive are those of the source. No stated cut-off is given here; in the data, active = GI50 up to about 1.1 µM and inactive = higher.

How the values were obtained:
Experiment in all cases: NCI-60 cell line screen, 48 h
U-251 = tested on: U-251
NCI-H23 = tested on: NCI-H23
NCI-H460 = tested on: NCI-H460
SK-OV-3 = tested on: SK-OV-3
CAKI-1 = tested on: CAKI-1
MCF7 = tested on: MCF7
RXF 393 = tested on: RXF 393
UACC-62 = tested on: UACC-62
NCI/ADR-RES = tested on: NCI/ADR-RES
ACHN = tested on: ACHN
K562 = tested on: K562
COLO 205 = tested on: COLO 205
MDA-MB-435 = tested on: MDA-MB-435
SK-MEL-5 = tested on: SK-MEL-5
RPMI-8226 = tested on: RPMI-8226
M14 = tested on: M14
SR = tested on: SR
OVCAR-4 = tested on: OVCAR-4
Malme-3M = tested on: Malme-3M
A549 = tested on: A549
SNB-75 = tested on: SNB-75
SF-268 = tested on: SF-268
SK-MEL-28 = tested on: SK-MEL-28
786-0 = tested on: 786-0
SW-620 = tested on: SW-620
IGROV-1 = tested on: IGROV-1
SK-MEL-2 = tested on: SK-MEL-2
T47D = tested on: T47D
HOP-62 = tested on: HOP-62
OVCAR-5 = tested on: OVCAR-5
LOX IMVI = tested on: LOX IMVI
CCRF-CEM = tested on: CCRF-CEM
KM12 = tested on: KM12
UACC-257 = tested on: UACC-257
DU-145 = tested on: DU-145
NCI-H226 = tested on: NCI-H226
OVCAR-8 = tested on: OVCAR-8
A498 = tested on: A498
OVCAR-3 = tested on: OVCAR-3
HCT-15 = tested on: HCT-15
UO-31 = tested on: UO-31
PC-3 = tested on: PC-3
MDA-N = tested on: MDA-N
EKVX = tested on: EKVX
TK-10 = tested on: TK-10
HCC 2998 = tested on: HCC 2998
Hs-578T = tested on: Hs-578T
SN12C = tested on: SN12C
HCT-116 = tested on: HCT-116
NCI-H522 = tested on: NCI-H522
SF-295 = tested on: SF-295
HL-60 = tested on: HL-60
MOLT-4 = tested on: MOLT-4
SNB-19 = tested on: SNB-19
SF-539 = tested on: SF-539
HOP-92 = tested on: HOP-92
HT-29 = tested on: HT-29
MDA-MB-231 = tested on: MDA-MB-231

Measured: GI50

O=P(O)(Cc1ccccc1)OCC1(O)OCC(O)C(O)C1O (stereo unspecified)
inactive: U-251 > 10 µM | NCI-H23 > 10 µM | NCI-H460 > 10 µM | SK-OV-3 > 10 µM | CAKI-1 > 10 µM | MCF7 > 10 µM | RXF 393 > 10 µM | UACC-62 > 10 µM | NCI/ADR-RES > 10 µM | ACHN > 10 µM | K562 > 10 µM | COLO 205 > 10 µM | MDA-MB-435 > 10 µM | SK-MEL-5 > 10 µM | RPMI-8226 > 10 µM | M14 > 10 µM | SR > 10 µM | OVCAR-4 > 10 µM | Malme-3M > 10 µM | A549 > 10 µM | SNB-75 > 10 µM | SF-268 > 10 µM | SK-MEL-28 > 10 µM | 786-0 > 10 µM | SW-620 > 10 µM | IGROV-1 > 10 µM | SK-MEL-2 > 10 µM | T47D > 10 µM | HOP-62 > 10 µM | OVCAR-5 > 10 µM

CC(C)C1SCc2nc3ccccc3n21 (stereo unspecified)
50.1 µM: HCT-15
inactive: LOX IMVI 35.4 µM | CCRF-CEM 34.8 µM | U-251 51.4 µM | KM12 17.8 µM | NCI-H23 25.9 µM | NCI-H460 46.3 µM | UACC-257 32.8 µM | SK-OV-3 > 100 µM | DU-145 91.4 µM | CAKI-1 40.1 µM | MCF7 13.9 µM | RXF 393 39.6 µM | UACC-62 35.1 µM | NCI/ADR-RES 29.4 µM | ACHN 19.7 µM | OVCAR-8 40.2 µM | K562 34.5 µM | A498 30.1 µM | COLO 205 12.7 µM | OVCAR-3 39.8 µM | MDA-MB-435 28.8 µM | UO-31 44.8 µM | SK-MEL-5 16.4 µM | RPMI-8226 31.5 µM | PC-3 13.2 µM | MDA-N 38.9 µM | M14 33.4 µM | EKVX 32.4 µM | TK-10 38.5 µM | OVCAR-4 27.4 µM | HCC 2998 78 µM | Hs-578T 36.1 µM | Malme-3M 37.2 µM | A549 37.9 µM | SN12C 21.8 µM | HCT-116 30.6 µM | NCI-H522 71.3 µM | SF-295 30.5 µM | HL-60 43 µM | MOLT-4 20 µM | SF-268 64.3 µM | SK-MEL-28 68.1 µM | SNB-19 51.8 µM | SF-539 38.2 µM | HOP-92 16.3 µM | HT-29 40.4 µM | 786-0 84.9 µM | SW-620 65.8 µM | IGROV-1 24.4 µM | MDA-MB-231 24.2 µM | SK-MEL-2 29.8 µM | T47D 58.1 µM | HOP-62 50.8 µM | OVCAR-5 77.3 µM
active: NCI-H226 < 0.01 µM

Cc1cc2nc3ccccc3n2c2ccccc12
inactive: LOX IMVI > 10 µM | CCRF-CEM 5.96 µM | U-251 > 10 µM | KM12 > 10 µM | NCI-H23 > 10 µM | NCI-H460 4.3 µM | UACC-257 > 10 µM | SK-OV-3 > 10 µM | DU-145 > 10 µM | CAKI-1 > 10 µM | MCF7 > 10 µM | RXF 393 > 10 µM | UACC-62 > 10 µM | NCI/ADR-RES > 10 µM | ACHN > 10 µM | NCI-H226 6.17 µM | OVCAR-8 > 10 µM | K562 > 10 µM | COLO 205 > 10 µM | OVCAR-3 > 10 µM | MDA-MB-435 > 10 µM | SK-MEL-5 > 10 µM | RPMI-8226 > 10 µM | PC-3 > 10 µM | MDA-N > 10 µM | M14 > 10 µM | SR > 10 µM | EKVX 1.81 µM | TK-10 > 10 µM | OVCAR-4 > 10 µM | HCC 2998 > 10 µM | Hs-578T > 10 µM | Malme-3M > 10 µM | A549 > 10 µM | SN12C > 10 µM | HCT-116 > 10 µM | SNB-75 > 10 µM | NCI-H522 > 10 µM | SF-295 > 10 µM | HL-60 > 10 µM | MOLT-4 > 10 µM | SF-268 > 10 µM | SK-MEL-28 > 10 µM | SNB-19 > 10 µM | SF-539 > 10 µM | HT-29 > 10 µM | 786-0 > 10 µM | SW-620 > 10 µM | IGROV-1 > 10 µM | MDA-MB-231 > 10 µM | SK-MEL-2 > 10 µM | T47D > 10 µM | HOP-62 > 10 µM | OVCAR-5 > 10 µM
> 10 µM: HCT-15
